Results as given in patent EP0549352B1, “Tricyclic compounds as angiotensin II antagonists” (KYOWA HAKKO KOGYO CO., LTD., priority 1991, dated 1993).

target: T1, AII receptor (Bos taurus, UniProt P25104); assay: Receptor binding test using bovine adrenal cortex ([125I]AII binding); conditions: test compound 0.1 µM; receptor binding of [125I]AII (2.5 × 10^-10M); bovine adrenal cortex membranes; room temperature, 2 hours; 0.1 µM
T1 construct: Tissue of bovine adrenal cortex was finely cut and suspended; from tissue; host or cells: bovine adrenal cortex membrane fraction
T1 sequence (P25104 1-359): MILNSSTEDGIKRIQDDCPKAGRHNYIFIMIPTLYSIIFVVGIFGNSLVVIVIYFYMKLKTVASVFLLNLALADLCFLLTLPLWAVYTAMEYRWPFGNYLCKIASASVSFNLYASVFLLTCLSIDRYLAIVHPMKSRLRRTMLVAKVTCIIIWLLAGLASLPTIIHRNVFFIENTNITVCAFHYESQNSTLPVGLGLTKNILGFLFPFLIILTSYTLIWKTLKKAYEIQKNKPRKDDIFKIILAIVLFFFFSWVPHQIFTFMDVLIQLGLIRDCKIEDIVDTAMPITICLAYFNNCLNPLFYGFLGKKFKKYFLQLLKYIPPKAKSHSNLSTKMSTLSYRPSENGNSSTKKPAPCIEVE
Experimental: Receptor binding test using bovine adrenal cortex
Tissue of bovine adrenal cortex was finely cut and suspended in a 0.25M sucrose solution containing NaHCO3, ethylenediaminetetraacetic acid (EDTA), leupepsin, pepstatin A and phenylmethanesulfonyl fluoride, followed by homogenization. The homogenate was centrifuged at 3,000 rpm for 10 minutes and the supernatant was centrifuged at 9,000 rpm. Then, the supernatant was further centrifuged at 30,000 rpm for 60 minutes and the precipitate was suspended in NaHCO3-EDTA solution, followed by centrifugation at 30,000 rpm for 60 minutes. The resulting precipitate was suspended in a phosphate buffer and the suspension was used for the binding test as an AII receptor source.
To a test compound or a solvent were added 250 µl of the AII receptor solution prepared above, 250 µl of Tris 50 mM buffer containing 0.2% bovine serum albumin (BSA), and 20 µl of [^125I]AII (2.5 × 10^-10M). The mixture was allowed to stand at room temperature for 2 hours and then filtered through a glass fiber filter (GF/B Wattman). The filter was placed in a test tube and the radioactivity was measured using a gamma-counter.
The inhibitory activity (inhibition rate) of the test compound (0.1 µM) against the receptor binding of [^125I]AII was calculated by the following equation. Inhibition Rate (%) =(1-((Binding Amount in the Presence of a Test Compound)-(Nonspecific Binding Amount))/((Total Binding Amount)-(Nonspecific Binding Amount)))× 100 [formula]
The binding amount in the presence of a test compound is the amount of radioactivity of [^125I]AII bound in the presence of a test compound (0.1 µM).
The total binding amount is the amount of radioactivity of [^125I]AII bound in the absence of a test compound.
The nonspecific binding amount is the amount of radioactivity of [^125I]AII bound in the presence of 1 µM AII.

Inhibition Rate (%) | Compound
88% | CCc1nc2c(C)cc(C)nc2n1Cc1ccc2c(c1)CCc1ccccc1C2=Cc1nnn[nH]1 (single isomer, unassigned) [Compound 20B, 2-(5,7-Dimethyl-2-ethyl-3H-imidazo[4,5-b]pyridin-3-yl)methyl-5-(1H-tetrazol-5-yl)methylene-5H-10,11-dihydrodibenzo[a,d]cycloheptene]
87% | CCc1nc2c(C)cc(C)nc2n1Cc1ccc2c(c1)OCc1ccccc1C2=Cc1nnn[nH]1 [Compound 6-E, 3-(5,7-Dimethyl-2-ethyl-3H-imidazo[4,5-b]pyridin-3-yl)methyl-11-(1H-tetrazol-5-yl)methylene-6,11-dihydrodibenz[b,e]oxepine]

same assay, conditions: test compound 0.1 µM; receptor binding of [125I]AII (2.5 × 10^-10M); bovine adrenal cortex membranes; room temperature, 2 hours; listed as 6-Z*, 0.1 µM

Inhibition Rate (%) | Compound
66% | CCc1nc2c(C)cc(C)nc2n1Cc1ccc2c(c1)OCc1ccccc1C2=Cc1nnn[nH]1 [Compound 6-Z, 3-(5,7-Dimethyl-2-ethyl-3H-imidazo[4,5-b]pyridin-3-yl)methyl-11-(1H-tetrazol-5-yl)methylene-6,11-dihydrodibenz[b,e]oxepine]

same assay, conditions: test compound 0.1 µM; receptor binding of [125I]AII (2.5 × 10^-10M); bovine adrenal cortex membranes; room temperature, 2 hours; read-out: Inhibition Rate (%)

inhibition at 0.1 µM | Compound
70% | CCc1nc2c(C)cc(C)nc2n1Cc1ccc2c(c1)CCc1ccccc1C2=Cc1nnn[nH]1 (single isomer, unassigned) [Compound 20A, 2-(5,7-Dimethyl-2-ethyl-3H-imidazo[4,5-b]pyridin-3-yl)methyl-5-(1H-tetrazol-5-yl)methylene-5H-10,11-dihydrodibenzo[a,d]cycloheptene]
43% | CCCc1nc2c(C)cccc2n1Cc1ccc2c(c1)OCc1ccccc1C2=CC(=O)O [Compound 1, [3-(4-Methyl-2-propylbenzimidazol-1-yl)methyl-6,11-dihydrodibenz[b,e]oxepin-11-yliden]acetic acid]
78% | CCc1nc2c(C)cc(C)nc2n1Cc1ccc2c(c1)OCc1ccccc1C2=CC(=O)O [Compound 3, [3-(5,7-Dimethyl-2-ethyl-3H-imidazo[4,5-b]pyridin-3-yl)methyl-6,11-dihydrodibenz[b,e]oxepin-11-yliden]acetic acid]
77% | CCc1nc2c(C)cc(C)nc2n1Cc1ccc2c(c1)C=Cc1ccc(F)cc1C2=CC(=O)O [Compound 4, [2-(5,7-Dimethyl-2-ethyl-3H-imidazo[4,5-b]pyridin-3-yl)methyl-7-fluoro-5H-dibenzo[a,d]cyclohepten-5-yliden]acetic acid]
52% | CCc1nc2c(C)cc(C)nc2n1Cc1ccc2c(c1)OCc1ccc(Br)cc1C2=CC(=O)O [Compound 7, [9-Bromo-3-(5,7-dimethyl-2-ethyl-3H-imidazo[4,5-b]pyridin-3-yl)methyl-6,11-dihydrodibenz[b,e]oxepin-11-yliden]acetic acid]
84% | CCc1nc2c(C)cc(C)nc2n1Cc1ccc2c(c1)OCc1ccsc1C2=CC(=O)O [Compound 11, [7-(5,7-Dimethyl-2-ethyl-3H-imidazo[4,5-b]pyridin-3-yl)methyl-4,10-dihydrothieno[3,2-c][1]benzoxepin-10-yliden]acetic acid]
72% | CCc1nc2c(C)cc(C)nc2n1Cc1ccc2c(c1)C=Cc1sccc1C2=CC(=O)O [Compound 12, [7-(5,7-Dimethyl-2-ethyl-3H-imidazo[4,5-b]pyridin-3-yl)methyl-4H-benzo[4,5]cyclohepte[1,2-b]thiophen-4-yliden]acetic acid]
91% | CCc1nc2c(C)cc(C)nc2n1Cc1ccc2c(c1)CCc1ccccc1C2=CC(=O)O [Compound 16, [2-(5,7-Dimethyl-2-ethyl-3H-imidazo[4,5-b]pyridin-3-yl)methyl-5H-10,11-dihydrodibenzo[a,d]cyclohepten-5-yliden]acetic acid]
81% | CCc1nc2c(C)cc(C)nc2n1Cc1ccc2c(c1)COc1ccccc1C2=Cc1nnn[nH]1 [Compound 18-Z, 8-(5,7-Dimethyl-2-ethyl-3H-imidazo[4,5-b]pyridin-3-yl)methyl-11-(1H-tetrazol-5-yl)methylene-6,11-dihydrodibenz[b,e]oxepine]
14% | CCc1nc2c(C)cc(C)nc2n1Cc1ccc2c(c1)C=Cc1c(Br)cccc1C2=Cc1nnn[nH]1 [Compound 19, 1-Bromo-8-(5,7-dimethyl-2-ethyl-3H-imidazo[4,5-b]pyridin-3-yl)methyl-5-(1H-tetrazol-5-yl)methylene-5H-dibenzo[a,d]cycloheptene]
80% | CCc1nc2c(C)cc(C)nc2n1Cc1ccc2c(c1)SCc1ccccc1C2=Cc1nnn[nH]1 [Compound 22-E, 3-(5,7-Dimethyl-2-ethyl-3H-imidazo[4,5-b]pyridin-3-yl)methyl-11-(1H-tetrazol-5-yl)methylene-6,11-dihydrodibenzo[b,e]thiepine]
61% | CCc1nc2c(C)cc(C)nc2n1Cc1ccc2c(c1)OCc1ccccc1C2CC(=O)O (centres unmarked) [Compound 23, [3-(5,7-Dimethyl-2-ethyl-3H-imidazo[4,5-b]pyridin-3-yl)methyl-6,11-dihydrodibenz[b,e]oxepin-11-yl]acetic acid]
94% | CCc1nc2c(C)cc(C)nc2n1Cc1ccc2c(c1)OCc1ccccc1C2Cc1nnn[nH]1 (centres unmarked) [Compound 25, 3-(5,7-Dimethyl-2-ethyl-3H-imidazo[4,5-b]pyridin-3-yl)methyl-11-(1H-tetrazol-5-yl)methyl-6,11-dihydrodibenz[b,e]oxepine]
83% | CCc1nc2c(C)cc(C)nc2n1Cc1ccc2c(c1)CCc1ccccc1C2Cc1nnn[nH]1 (centres unmarked) [Compound 28, 2-(5,7-Dimethyl-2-ethyl-3H-imidazo[4,5-b]pyridin-3-yl)methyl-5-(1H-tetrazol-5-yl)methyl-5H-10,11-dihydrodibenzo[a,d]cycloheptene]
92% | Cc1cc(C)c2nc(C3CC3)n(Cc3ccc4c(c3)CCc3ccccc3C4Cc3nnn[nH]3)c2n1 (centres unmarked) [Compound 29, 2-(5,7-Dimethyl-2-cyclopropyl-3H-imidazo[4,5-b]pyridin-3-yl)methyl-5-(1H-tetrazol-5-yl)methyl-5H-10,11-dihydrodibenzo[a,d]cycloheptene]
88% | CCc1nc2c(C)cc(C)nc2n1Cc1ccc2c(c1)CCc1ccccc1N2CC(=O)O [Compound 33, 5-Carboxymethyl-2-(5,7-dimethyl-2-ethyl-3H-imidazo[4,5-b]pyridin-3-yl)methyl-5H-10,11-dihydrodibenz[b,f]azepine]
97% | Cc1cc(C)c2nc(C3CC3)n(Cc3ccc4c(c3)CCc3ccccc3N4Cc3nnn[nH]3)c2n1 [Compound 34, 2-(5,7-Dimethyl-2-cyclopropyl-3H-imidazo[4,5-b]pyridin-3-yl)methyl-5-(1H-tetrazol-5-yl)methyl-5H-10,11-dihydrodibenz[b,f]azepine]
68% | CCc1nc2c(C)cc(C)nc2n1Cc1ccc2c(c1)CCc1ccccc1N2Cc1ccccc1C(=O)O [Compound 38, 2-[[2-(5,7-Dimethyl-2-ethyl-3H-imidazo[4,5-b]pyridin-3-yl)methyl-5H-10,11-dihydrodibenz[b,f]azepin-5-yl]methyl]benzoic acid]
95% | CCCCC(=O)N(Cc1ccc2c(c1)CCc1ccccc1N2Cc1nnn[nH]1)C(C(=O)O)C(C)C (centres unmarked) [Compound 40, N-[[5-(1H-Tetrazol-5-yl)methyl-5H-10,11-dihydrodibenz[b,f]azepin-2-yl]methyl]-N-valerylvaline]
85% | CCc1nc2c(C)cc(C)nc2n1Cc1ccc2c(c1)c1ccccc1n2CCc1nnn[nH]1 [Compound 42, 3-(5,7-Dimethyl-2-ethyl-3H-imidazo[4,5-b]pyridin-3-yl)methyl-9-[2-(1H-tetrazol-5-yl)ethyl]carbazole]
